Tests used:
InflammaSkin® models = assay: Hematoxylin & Eosin (H&E) staining of InflammaSkin models (skin structure, integrity, viability); type: cell-based, human; conditions: Example 1; Day 7; Day 1-6: 1 μM Otezla or SCFA (45 μg/mL Ca-propionate + 1 mM Ca-/Mg-butyrate) systemic, 0.05% Betamethasone topical; vs untreated InflammaSkin
Method: (§1) A total of 16 biopsies of 15 mm diameter were produced from a single donor. Two NativeSkin® models with 12/15 mm silicon rings were produced from the biopsies according to standard procedures in place, and cultured under cell culture conditions (37° C., 5% CO2, max. humidity) for 7 days with 2 mL of standard NativeSkin® medium renewed every day. Fourteen PSO-InflammaSkin® models with 12/15 mm silicon rings were produced by inducing in situ activation and Th17/Th1 polarization of skin resident T cells with a proprietary cocktail, and cultured under cell culture conditions (37° C., 5% CO2, max. humidity) for 7 days with 2 mL of PSO-InflammaSkin® culture medium renewed every day.
(§2) From Day 1 to Day 6, models were systemically treated with 1 μM Otezla or Short Chain Fatty Acids (SCFAs), or topically treated with positive control 0.05% Betamethasone
In these experiments, the SCFAs administered were 45 μg/mL of Ca-propionate and 1 mM mixture of salts (Ca-butyrate and Mg-butyrate). […]
Skin structure and integrity and viability were evaluated using Hematoxylin & Eosin (H&E) staining following treatment with Betamethasone, […] Otezla® (Apremilast), or SCFAs comprising butyric acid and propionic acid. […] Therefore, the donor sample was determined to remain viable over the course of the culture in the absence of inflammation/T-cell activation.

IL-17A = assay: Multiplex (MSD V-PLEX) cytokine release, InflammaSkin: IL-17A; type: cell-based, human; conditions: Day 7 supernatant, 0.05% Betamethasone topical, vs untreated InflammaSkin
Method: as §1, §2
(§3) In these experiments, the SCFAs administered were 45 μg/mL of Ca-propionate and 1 mM mixture of salts (Ca-butyrate and Mg-butyrate).
At Day 7, supernatants were collected and stored at −80° C. and skin models of all conditions were carefully unmolded. […]
Human pro-inflammatory cytokines released in the supernatant were quantified using the V-PLEX Human IL-17A Kit (MesoScale Discovery, reference: K151RFD-1) and V-PLEX Human TNFα Kit (MesoScale Discovery, reference: K151QWD-1). […]
(§4) Human pro-inflammatory cytokines released in the supernatant were quantified using the V-PLEX Human IL-17A Kit (MesoScale Discovery, reference: K151RFD-1) and V-PLEX Human custom Pro-inflammatory. […]
(§5) Samples were diluted four times for plate 2 and two times for plate 1. Samples and standards were assessed in duplicate. Plates were read on MesoScale Discovery Quickpleax SQ 120 plate reader and values expressed in pg/mL.
(§6) A statistical analysis was performed. […] First, the distribution's normality of the two compared group was assessed. […] If the two distributions were normal, the homogeneity of variances was assessed using a Fisher test on the variances. […]

TNF-α [1] = assay: Multiplex (MSD V-PLEX) cytokine release, InflammaSkin: TNF-α; type: cell-based, human
Method: as §1, §2, §3
At Day 7, supernatants were collected and stored at −80° C. and skin models of all conditions were carefully unmolded. Skin biopsies were re-punched to eliminate the area under the silicon ring, fixed in 10% buffered formalin and processed for paraffin wax embedding.
Human pro-inflammatory cytokines released in the supernatant were quantified using the V-PLEX Human IL-17A Kit (MesoScale Discovery, reference: K151RFD-1) and V-PLEX Human TNFα Kit (MesoScale Discovery, reference: K151QWD-1). Values are expressed in pg/mL. For each condition, single values, mean and SEM were plotted using GraphPad Prism. Statistical analysis was performed using a One Way ANOVA test.
PSO-InflammaSkin® models were cultured and treated as described in Example 1. In these experiments, the SCFAs administered were 45 μg/mL of Ca-propionate and 1 mM mixture of salts (Ca-butyrate and Mg-butyrate).
Human pro-inflammatory cytokines released in the supernatant were quantified using the V-PLEX Human IL-17A Kit (MesoScale Discovery, reference: K151RFD-1) and V-PLEX Human custom Pro-inflammatory. Plate 1 comprised Proinflammatory Panel 1 (human) kit reference K15049 (panel IFN-γ and TNF-α). Plate 2 comprised TH17 Panel 1 (human) kit reference K15049 (panel IL-17A Gen B, IL-21, IL-22, IL-23, IL-27, IL-31, MIP-3α).
as §5
A statistical analysis was performed. Each condition was compared to the untreated InflammaSkin® condition. First, the distribution's normality of the two compared group was assessed. […] If the two distributions were normal, the homogeneity of variances was assessed using a Fisher test on the variances. […]

IFN-γ = assay: Multiplex (MSD V-PLEX) cytokine release, InflammaSkin: IFN-γ; type: cell-based, human; conditions: Example 2; Day 7 supernatant; 1 μM Otezla or SCFA (45 μg/mL Ca-propionate + 1 mM Ca-/Mg-butyrate) systemic, 0.05% Betamethasone topical; vs untreated InflammaSkin
Method: (§7) A total of 16 biopsies of 15 mm diameter were produced from a single donor. Two NativeSkin® models with 12/15 mm silicon rings were produced from the biopsies according to standard procedures in place, and cultured under cell culture conditions (37° C., 5% CO2, max. humidity) for 7 days with 2 mL of standard NativeSkin® medium renewed every day. Fourteen PSO-InflammaSkin® models with 12/15 mm silicon rings were produced by inducing in situ activation and Th17/Th1 polarization of skin resident T cells with a proprietary cocktail, and cultured under cell culture conditions (37° C., 5% CO2, max. humidity) for 7 days with 2 mL of PSO-InflammaSkin® culture medium renewed every day. […]
as §4, §5, §6

IL-31 = assay: Multiplex (MSD V-PLEX) cytokine release, InflammaSkin: IL-31; type: cell-based, human; conditions: Example 2; Day 7 supernatant; 1 μM Otezla or SCFA systemic; vs untreated InflammaSkin
Method: as §7, §4, §5, §6

MIP-3α = assay: Multiplex (MSD V-PLEX) cytokine release, InflammaSkin: MIP-3α; type: cell-based, human; conditions: Example 2; 1 μM Otezla systemic; compared to untreated InflammaSkin
Method: as §7, §4, §5, §6

IL-21 = assay: Multiplex (MSD V-PLEX) cytokine release, InflammaSkin: IL-21; type: cell-based, human; conditions: Example 2; 1 μM Otezla systemic; compared to untreated InflammaSkin
Method: as §7, §4, §5, §6

TNF-α [2] = assay: ELISA analysis of TNF-α, InflammaSkin; type: cell-based, human; conditions: Example 2; Otezla-treated InflammaSkin; FIG. 20
[3] = Body weight in IMQ-induced psoriasis model mice; type: in vivo, mouse
Method: Body weight was determined daily in all mice over the whole period of each study. Oral treatment with either Apremilast (25 mg/kg BID) or SFA002 (fixed dose BID) started with the disease induction on day 0. Etanercept (10 mg/kg Q3D s.c.) served as a technical control. Healthy control and IMQ control group received no placebo treatment.

SMILES: CCOc1cc([C@@H](CS(C)(=O)=O)N2C(=O)c3cccc(NC(C)=O)c3C2=O)ccc1OC [Otezla, Apremilast]
- H&E: incidence of pyknosis, vacuolization and epidermal/dermal separation (InflammaSkin® models): reduce the incidence of pyknosis, vacuolization and epidermal/dermal separation
- IL-17A levels decreased by (IL-17A; Example 1, 1 μM Otezla or SCFA (45 μg/mL Ca-propionate + 1 mM Ca-/Mg-butyrate) systemic): about 95%
- IL-17A secretion (IL-17A; Example 2, 1 μM Otezla or SCFA systemic): significantly reduced
- increase of the release of TNF-α (TNF-α [1]; Example 1, Day 7 supernatant, 1 μM Otezla systemic, vs untreated InflammaSkin): ~2 fold
- TNFα secretion (TNF-α [1]; Example 2, Day 7 supernatant, 1 μM Otezla or SCFA systemic, 0.05% Betamethasone topical, vs untreated InflammaSkin): significantly increased
- TNFα level (by MSD) (TNF-α [1]; Example 2, Otezla-treated InflammaSkin (untreated about 1 μg/mL)): about 2 μg/mL
- IFN-γ secretion (IFN-γ): significantly reduced
- IL-31 secretion (IL-31): reduced IL-31 (FIG. 10 and FIG. 17), but it was not significantly different from untreated InflammaSkin® models
- increase of secretion of MIP-3a (MIP-3α): about 50%
- increase of secretion of IL-21 (IL-21): about 50%
- TNFα level (by ELISA) (TNF-α [2]): ~13 pg/mL
- body weight loss ([3]; Example 4, Apremilast 25 mg/kg BID, SCFA fixed dose BID (120 + 2,146 mg/kg/day), oral): no effect on body weight loss
- body weight loss ([3]; Example 7, Apremilast 2.5, 5, 7 mg/kg BID, SCFA (120 + 1,100 mg/kg/day), alone or in combination, vs vehicle-treated IMQ disease controls): no positive influence on body weight loss
- body weight loss ([3]; Example 9, Apremilast 25 mg/kg BID, SCFA fixed dose, alone or in combination, vs vehicle-treated IMQ disease controls): no positive influence on body weight loss
- body weight loss ([3]; Example 12, Apremilast 12 or 25 mg/kg BID, fixed dose SCFA, alone or in combination, vs vehicle-treated IMQ disease controls): no positive influence on body weight loss
